Laboratory results as given in ChEMBL document CHEMBL4819053, “Alkyne-Bridged α-Conotoxin Vc1.1 Potently Reverses Mechanical Allodynia in Neuropathic Pain Models” (J Med Chem, 2021).
Calls of active or inactive are those of the source.

How the values were obtained:
[1] = target: T1, GABA-B receptor (Homo sapiens) (UniProt Q9UBS5+O75899); test: Agonist activity at human GABAB expressed in HEK293T cells co-transfected with human CaV2.2-alpha2delta1 channel assessed as inhibition of CaV2.2-mediated Ba2+ peak-current amplitude at 100 nM at -80 to 10 mV holding potential after 72 hrs by whole cell patch clamp assay relative to control; format: cell-based; details: filed as agonist
[2] = target: T1, GABA-B receptor (Homo sapiens); test: Agonist activity at human GABAB expressed in HEK293T cells co-transfected with human CaV2.2-beta3 channel assessed as inhibition of CaV2.2-mediated Ba2+ peak-current amplitude at 100 nM at -80 to 10 mV holding potential after 72 hrs by whole cell patch clamp assay relative to control; format: cell-based; details: filed as agonist
[3] = target: Neuronal acetylcholine receptor subunit alpha-7 (Homo sapiens) (UniProt P36544); test: Antagonist activity at human alpha7 nAChR expressed in Xenopus laevis oocytes assessed as inhibition of Ach-induced response incubated for 5 mins by two electrode voltage-clamp assay; format: cell-based; details: Oocyte, dose 1-30 µM
[4] = target: GABA-B receptor (Homo sapiens, UniProt O75899+Q9UBS5); test: Agonist activity at human GABAB expressed in HEK293T cells co-transfected with human CaV2.2 channel assessed as inhibition of CaV2.2-mediated Ba2+ peak-current amplitude at -80 to 10 mV holding potential after 72 hrs by whole cell patch clamp assay; format: cell-based
[5] = target: T2, Neuronal acetylcholine receptor; alpha9/alpha10 (Homo sapiens) (UniProt Q9UGM1+Q9GZZ6); test: Antagonist activity at human alpha9alpha10 nAChR expressed in Xenopus laevis oocytes assessed as inhibition of Ach-induced response incubated for 5 mins by two electrode voltage-clamp assay; format: cell-based; details: Oocyte, filed as antagonist, dose 1-30 µM
[6] = target: Neuronal acetylcholine receptor; alpha3/beta4 (Homo sapiens) (UniProt P30926+P32297); test: Antagonist activity at human alpha3beta4 nAChR expressed in Xenopus laevis oocytes assessed as inhibition of Ach-induced response at 1 to 30 uM incubated for 5 mins by two electrode voltage-clamp assay; format: cell-based; details: Oocyte, filed as antagonist, dose 1-30 µM
[7] = target: T1, GABA-B receptor (Homo sapiens); test: Agonist activity at human GABAB expressed in HEK293T cells co-transfected with human CaV2.2-alpha1B channel assessed as inhibition of CaV2.2-mediated Ba2+ peak-current amplitude at 100 nM at -80 to 10 mV holding potential after 72 hrs by whole cell patch clamp assay relative to control; format: cell-based; details: filed as agonist
[8] = target: T3, Neuronal acetylcholine receptor; alpha3/beta2 (Homo sapiens) (UniProt P17787+P32297); test: Antagonist activity at human alpha3beta2 nAChR expressed in Xenopus laevis oocytes assessed as inhibition of Ach-induced response incubated for 5 mins by two electrode voltage-clamp assay; format: cell-based; details: Oocyte, filed as antagonist, dose 1-30 µM
[9] = target: Nicotinic acetylcholine receptor alpha6/alpha3/beta4 (Homo sapiens) (UniProt P30926+P32297+Q15825); test: Antagonist activity at human alpha6/alpha3beta4 nAChR expressed in Xenopus laevis oocytes assessed as inhibition of Ach-induced response at 1 to 30 uM incubated for 5 mins by two electrode voltage-clamp assay; format: cell-based; details: Oocyte, filed as antagonist, dose 1-30 µM
[10] = target: T3, Neuronal acetylcholine receptor; alpha3/beta2 (Homo sapiens); test: Antagonist activity at human alpha3beta2 nAChR expressed in Xenopus laevis oocytes assessed as inhibition of Ach-induced response at 30 uM incubated for 5 mins by two electrode voltage-clamp assay relative to control; format: cell-based; details: Oocyte
[11] = system: Rattus norvegicus; test: Antiallodynic activity in Sprague-Dawley rat model of neuropathic mechanical allodynia assessed as increase in paw withdrawal threshold at 0.1 mg/kg, IM measured at 2 hr post last dose by von Frey test; format: functional
[12] = system: Rattus norvegicus; test: Antiallodynic activity in Sprague-Dawley rat model of neuropathic mechanical allodynia assessed as increase in paw withdrawal threshold at 0.1 mg/kg, IM measured at 6 hr post last dose by von Frey test; format: functional
[13] = system: Rattus norvegicus; test: Antiallodynic activity in Sprague-Dawley rat model of neuropathic mechanical allodynia assessed as increase in paw withdrawal threshold at 0.1 mg/kg, IM measured at 4 hr post last dose by von Frey test; format: functional
[14] = system: Rattus norvegicus; test: Antiallodynic activity in Sprague-Dawley rat model of neuropathic mechanical allodynia assessed as increase in paw withdrawal threshold administered intramuscularly measured at 1 to 24 hrs post last dose by von Frey test; format: functional, organism-based; details: dose 0.03-0.1 mg/kg, time 1-24 hrs
[15] = target: T2, Neuronal acetylcholine receptor; alpha9/alpha10 (Homo sapiens); test: Antagonist activity at human alpha9/alpha10 nAChR expressed in Xenopus laevis oocytes assessed as inhibition of Ach-induced response at 30 uM incubated for 5 mins by two electrode voltage-clamp assay; format: cell-based; details: Oocyte
[16] = system: Rattus norvegicus; test: Antiallodynic activity in Sprague-Dawley rat model of neuropathic mechanical allodynia assessed as increase in paw withdrawal threshold at 0.1 mg/kg, IM measured at 24 hrs post last dose by von Frey test; format: functional
[17] = system: Rattus norvegicus; test: Antiallodynic activity in Sprague-Dawley rat model of neuropathic mechanical allodynia assessed as increase in paw withdrawal threshold at 0.1 mg/kg, IM measured at 1 hr post last dose by von Frey test; format: functional

Chain of Neuronal acetylcholine receptor subunit alpha-7 (Homo sapiens) (P36544 whole entry): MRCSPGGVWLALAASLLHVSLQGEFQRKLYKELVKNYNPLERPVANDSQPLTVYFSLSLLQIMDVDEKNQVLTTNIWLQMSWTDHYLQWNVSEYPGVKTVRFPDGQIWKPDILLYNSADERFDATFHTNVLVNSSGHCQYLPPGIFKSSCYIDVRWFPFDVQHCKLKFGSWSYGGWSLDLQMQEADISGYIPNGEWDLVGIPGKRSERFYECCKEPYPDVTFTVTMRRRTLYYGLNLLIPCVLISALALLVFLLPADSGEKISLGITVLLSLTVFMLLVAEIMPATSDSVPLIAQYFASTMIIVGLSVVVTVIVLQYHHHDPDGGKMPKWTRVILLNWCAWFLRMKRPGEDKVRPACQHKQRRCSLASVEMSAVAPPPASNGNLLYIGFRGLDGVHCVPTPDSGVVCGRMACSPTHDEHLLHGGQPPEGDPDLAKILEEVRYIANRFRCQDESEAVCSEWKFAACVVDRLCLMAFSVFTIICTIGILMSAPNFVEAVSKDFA
Chain of GABA-B receptor (Q9UBS5 whole entry): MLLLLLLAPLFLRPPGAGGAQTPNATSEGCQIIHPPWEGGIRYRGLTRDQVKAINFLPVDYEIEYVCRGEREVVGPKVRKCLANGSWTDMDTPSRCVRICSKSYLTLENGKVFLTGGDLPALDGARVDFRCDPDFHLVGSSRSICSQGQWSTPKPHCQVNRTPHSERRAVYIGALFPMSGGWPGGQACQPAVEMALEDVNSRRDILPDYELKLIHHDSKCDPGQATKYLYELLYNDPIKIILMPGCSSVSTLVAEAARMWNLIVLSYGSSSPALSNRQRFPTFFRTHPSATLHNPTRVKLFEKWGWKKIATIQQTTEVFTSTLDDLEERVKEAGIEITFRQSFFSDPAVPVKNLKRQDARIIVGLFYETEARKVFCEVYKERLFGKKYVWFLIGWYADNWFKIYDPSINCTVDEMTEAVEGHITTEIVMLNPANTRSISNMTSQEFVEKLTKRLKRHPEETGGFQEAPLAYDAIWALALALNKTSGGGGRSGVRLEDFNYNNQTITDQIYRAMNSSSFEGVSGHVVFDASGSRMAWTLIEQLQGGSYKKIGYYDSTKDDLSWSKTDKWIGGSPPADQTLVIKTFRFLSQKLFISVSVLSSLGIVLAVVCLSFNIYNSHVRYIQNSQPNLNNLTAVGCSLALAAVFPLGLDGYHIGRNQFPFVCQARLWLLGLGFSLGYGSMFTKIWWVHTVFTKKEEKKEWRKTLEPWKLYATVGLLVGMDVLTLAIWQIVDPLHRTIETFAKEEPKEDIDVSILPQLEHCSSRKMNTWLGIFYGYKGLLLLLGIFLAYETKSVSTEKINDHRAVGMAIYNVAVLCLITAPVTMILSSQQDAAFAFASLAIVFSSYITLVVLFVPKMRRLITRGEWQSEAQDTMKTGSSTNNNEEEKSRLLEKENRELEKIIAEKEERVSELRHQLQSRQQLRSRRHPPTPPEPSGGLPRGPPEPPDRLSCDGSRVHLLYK
Chain of GABA-B receptor (O75899 whole entry): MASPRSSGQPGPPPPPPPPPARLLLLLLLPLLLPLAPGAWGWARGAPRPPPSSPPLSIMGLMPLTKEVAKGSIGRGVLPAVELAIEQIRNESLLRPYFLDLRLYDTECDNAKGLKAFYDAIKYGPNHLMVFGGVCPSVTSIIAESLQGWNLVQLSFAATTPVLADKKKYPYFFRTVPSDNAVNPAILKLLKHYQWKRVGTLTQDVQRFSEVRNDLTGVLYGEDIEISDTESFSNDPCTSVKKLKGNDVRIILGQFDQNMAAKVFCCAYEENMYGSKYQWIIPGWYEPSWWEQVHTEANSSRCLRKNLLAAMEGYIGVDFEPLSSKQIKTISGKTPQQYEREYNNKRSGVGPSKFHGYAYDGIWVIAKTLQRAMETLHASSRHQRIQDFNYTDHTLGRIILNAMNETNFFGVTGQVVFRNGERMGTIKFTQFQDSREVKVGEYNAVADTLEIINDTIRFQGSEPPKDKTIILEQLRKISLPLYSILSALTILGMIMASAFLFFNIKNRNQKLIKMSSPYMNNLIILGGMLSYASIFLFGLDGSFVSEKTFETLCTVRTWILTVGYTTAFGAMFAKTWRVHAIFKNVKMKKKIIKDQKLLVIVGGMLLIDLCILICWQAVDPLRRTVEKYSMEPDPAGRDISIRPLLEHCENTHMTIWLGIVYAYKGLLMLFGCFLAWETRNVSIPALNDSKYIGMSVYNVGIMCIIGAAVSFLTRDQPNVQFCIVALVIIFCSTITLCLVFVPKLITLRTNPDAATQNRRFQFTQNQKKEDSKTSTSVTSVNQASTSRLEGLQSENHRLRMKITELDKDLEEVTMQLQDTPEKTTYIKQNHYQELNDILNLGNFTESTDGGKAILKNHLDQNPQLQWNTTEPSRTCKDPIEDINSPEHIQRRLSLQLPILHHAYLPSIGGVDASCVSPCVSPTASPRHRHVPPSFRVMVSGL

**Q.** For `CC[C@H](C)[C@@H]1NC(=O)[C@H](CCC(=O)O)NC(=O)[C@@H]2CCCN2C(=O)[C@H](Cc2cnc[nH]2)NC(=O)[C@H](CC(=O)O)NC(=O)[C@H](Cc2ccc(O)cc2)NC(=O)[C@H](CC(N)=O)NC(=O)[C@@H]2CSSC[C@H](NC(=O)[C@@H](NC(=O)CN)CSSC[C@@H](C(N)=O)NC1=O)C(=O)N[C@@H](CO)C(=O)N[C@@H](CC(=O)O)C(=O)N1CCC[C@H]1C(=O)N[C@@H](CCCNC(=N)N)C(=O)N2`, which inhibition [1] is on record?
**A.** 25%

**Q.** What about the inhibition [2] of the same molecule?
**A.** 25%

**Q.** What about the inhibition ([3]; filed as antagonist) of the same molecule?
**A.** Dose-Dependent Effect

**Q.** What about the IC50 [4] of the same molecule?
**A.** 21 nM

**Q.** What about the inhibition [5] of the same molecule?
**A.** Dose-Dependent Effect

**Q.** And the inhibition [6]?
**A.** Active

**Q.** What about the inhibition [7] of the same molecule?
**A.** 25%

**Q.** What about the inhibition [8] of the same molecule?
**A.** Dose-Dependent Effect

**Q.** What about the inhibition [9] of the same molecule?
**A.** Active

**Q.** `CC[C@H](C)[C@@H]1NC(=O)[C@H](CCC(=O)O)NC(=O)[C@@H]2CCCN2C(=O)[C@H](Cc2cnc[nH]2)NC(=O)[C@H](CC(=O)O)NC(=O)[C@H](Cc2ccc(O)cc2)NC(=O)[C@H](CC(N)=O)NC(=O)[C@@H]2CCCC[C@@H](NC(=O)CN)C(=O)N[C@H](CSSC[C@@H](C(N)=O)NC1=O)C(=O)N[C@@H](CO)C(=O)N[C@@H](CC(=O)O)C(=O)N1CCC[C@H]1C(=O)N[C@@H](CCCNC(=N)N)C(=O)N2` was tested. Which inhibition [1] did it give?
**A.** 0.06%

**Q.** What about the inhibition [2] of the same molecule?
**A.** 0.06%

**Q.** What about the inhibition ([10]; filed as antagonist) of the same molecule?
**A.** > 90%

**Q.** What about the inhibition [7] of the same molecule?
**A.** 0.06%

**Q.** With `CC[C@H](C)[C@@H]1NC(=O)[C@H](CCC(=O)O)NC(=O)[C@@H]2CCCN2C(=O)[C@H](Cc2cnc[nH]2)NC(=O)[C@H](CC(=O)O)NC(=O)[C@H](Cc2ccc(O)cc2)NC(=O)[C@H](CC(N)=O)NC(=O)[C@@H]2CC#CC[C@@H](NC(=O)CN)C(=O)N[C@H](CSSC[C@@H](C(N)=O)NC1=O)C(=O)N[C@@H](CO)C(=O)N[C@@H](CC(=O)O)C(=O)N1CCC[C@H]1C(=O)N[C@@H](CCCNC(=N)N)C(=O)N2` as the molecule, how does the Activity [11] read?
**A.** 5.5 g

**Q.** What about the inhibition [1] of the same molecule?
**A.** 26%

**Q.** And the inhibition [2]?
**A.** 26%

**Q.** What about the inhibition [3] of the same molecule?
**A.** inactive

**Q.** What about the inhibition [10] of the same molecule?
**A.** inactive

**Q.** And the Activity [12]?
**A.** 4.88 g

**Q.** What about the Activity [13] of the same molecule?
**A.** 5.5 g

**Q.** And the IC50 [4]?
**A.** 13 nM

**Q.** What about the Activity [14] of the same molecule?
**A.** Dose-Dependent Effect

**Q.** And the inhibition [15]?
**A.** inactive

**Q.** And the Activity [16]?
**A.** 3.88 g

**Q.** And the inhibition [7]?
**A.** 26%

**Q.** And the Activity [17]?
**A.** 5.38 g
